One experiment deals with B. fragilis NCTC 9344. Briefly: MIC/MBC against Bacteroides fragilis strain C. Type of experiment: cell-based. The note with it: for MBC: NCTC9344, 99.9% reduction in viable count; for MIC: NCTC9344, 48 h, 48 hours, 37° C., anaerobic. As for the experimental part: The screening panel utilized in this Example consisted of 5 strains of Bacteroides fragilis. All assays were carried out in 96-well microtitre plates. If an isolate was obtained from either a culture collection or clinical source, the isolate was immediately inoculated into Wilkens-Chalgren broth (Oxoid) and incubated at 37° C. in an anaerobic chamber in an atmosphere of 85% nitrogen, 10% carbon dioxide, and 5% hydrogen for 48 hours. At the end of this time, the viable count was about 10^12 organisms/ml broth. A 1 ml aliquot of each culture was placed in an ampoule and quick frozen in acetone-dry ice mixture and stored in liquid nitrogen. When an inoculum was utilized in an assay, one of the ampoules was thawed and diluted with fresh broth to yield a suspension having a count of 5×10^5 organisms/ml. A 100 μl aliquot of this suspension was inoculated into each well of the microtitre plate. A 2 mg sample of the test compound was dissolved in 0.2 ml of a suitable solvent such as dimethylsulfoxide, polyethylene glycol 200 or methanol. […] After addition of the test solution the final inoculum level was 10^5 cells/ml. The plates were incubated for 48 hours at 37° C. in the anaerobic chamber. The Minimum Inhibitory Concentration (MIC) was read visually. The MIC is defined as the lowest concentration at which there is no detectable growth. The Minimum Bactericidal Concentration (MBC) was determined by taking 50 μl aliquot from each well and placing it in fresh medium. […] The strains of Bacteroides fragilis utilized in the above procedure are identified by letter in accordance with the following legend: |C B. fragilis NCTC 9344

Experiment [1] deals with B. fragilis MZ-R ATCC 11295. Briefly: MIC/MBC against Bacteroides fragilis strain D. Type of experiment: cell-based. To be noted: for MBC: ATCC11295, 99.9% reduction in viable count; for MIC: ATCC11295, 48 h, 48 hours, 37° C., anaerobic. The protocol: The screening panel utilized in this Example consisted of 5 strains of Bacteroides fragilis. All assays were carried out in 96-well microtitre plates. If an isolate was obtained from either a culture collection or clinical source, the isolate was immediately inoculated into Wilkens-Chalgren broth (Oxoid) and incubated at 37° C. in an anaerobic chamber in an atmosphere of 85% nitrogen, 10% carbon dioxide, and 5% hydrogen for 48 hours. At the end of this time, the viable count was about 10^12 organisms/ml broth. A 1 ml aliquot of each culture was placed in an ampoule and quick frozen in acetone-dry ice mixture and stored in liquid nitrogen. When an inoculum was utilized in an assay, one of the ampoules was thawed and diluted with fresh broth to yield a suspension having a count of 5×10^5 organisms/ml. A 100 μl aliquot of this suspension was inoculated into each well of the microtitre plate. A 2 mg sample of the test compound was dissolved in 0.2 ml of a suitable solvent such as dimethylsulfoxide, polyethylene glycol 200 or methanol. […] After addition of the test solution the final inoculum level was 10^5 cells/ml. The plates were incubated for 48 hours at 37° C. in the anaerobic chamber. The Minimum Inhibitory Concentration (MIC) was read visually. The MIC is defined as the lowest concentration at which there is no detectable growth. The Minimum Bactericidal Concentration (MBC) was determined by taking 50 μl aliquot from each well and placing it in fresh medium.

The test system of experiment [2] is Bacteroides melanogenicus NCTC 9336. The experiment is described as follows: MIC vs panel of anaerobes. The note with it: NCTC9336, procedures of Example 40. Type of experiment: cell-based.
The subject of experiment [3] is Clostridium perfringens NCTC 523. The experiment is described as follows: microbe, parasite or virus in culture. The format is cell-based. To be noted: Clostridium perfringens, NCTC523, Clostridium perfringens NCTC 523; procedures of Example 40.
Another experiment relates to Peptococcous magnus. The experiment is described as follows: MIC vs panel of anaerobes. Type of experiment: cell-based. The note with it: procedures of Example 40.
In another experiment the test system is Peptostreptococcus. The experiment is described as follows: MIC vs panel of anaerobes. The format is cell-based. To be noted: procedures of Example 40.
The subject of experiment [4] is Campylobacter fetus ss. jejuni ATCC 29428. The experiment is described as follows: MIC vs panel of anaerobes. Type of experiment: cell-based. To be noted: ATCC29428, procedures of Example 40.
In another experiment the test system is B. fragilis 23745. The note with it: Bacteroides fragilis, 23745, in Mus musculus, po, 48 h, log CFU/ml liver homogenate, test compound.
The subject of another experiment is P. anaerobius. Briefly: MIC vs panel of anaerobes. The format is cell-based. To be noted: Peptostreptococcus anaerobius, procedures of Example 40.
Experiment [5] deals with B. melanogenicus ATCC 15032. The experiment is described as follows: MIC vs panel of anaerobes. To be noted: procedures of Example 40. Type of experiment: cell-based.
[6] abbreviates: read-out: DOSE GIVING 1 LOG REDUCTION (molar), p.o., after infection and twice daily for 2 days.
Setting [7] is: read-out: DOSE GIVING 1 LOG REDUCTION, p.o., after infection and twice daily for 2 days.

Structures are written as SMILES. Converted amounts (≈) assume the structure as drawn. Where two headings read alike, the source gives them in different places.

Regarding `CC1(C)CN=C2C(c3ccccc3)=[N+]([O-])c3ccncc3N2C1` [Example 14, 2,3-Dihydro-2,2-dimethyl-5-phenyl-1H-pyrimido[1,2-a]pyrido[4,3-e]pyrazine 6-oxide], the minimal bactericidal concentration (MBC) with B. fragilis NCTC 9344 is 6.2 µg/mL (≈ 20.2 µM); in [1], 3.1 µg/mL (≈ 10.1 µM). The MIC worked out at 6.2 µg/mL (≈ 20.2 µM) against B. fragilis NCTC 9344; 3.1 µg/mL (≈ 10.1 µM) in experiment [1]; 100 µg/mL (≈ 326 µM) in experiment [2]; 25 µg/mL (≈ 81.6 µM) in experiment [3]; 100 µg/mL (≈ 326 µM) with Peptococcous magnus; 100 µg/mL (≈ 326 µM) in the experiment with Peptostreptococcus. Moreover, the MIC in experiment [4] is 100 µg/mL (≈ 326 µM).
On to `CC1(C)CN=C2C(c3ccc(Cl)cc3)=[N+]([O-])c3cnccc3N2C1` [Example 17, 2,3-Dihydro-5-(4-chlorophenyl)-2,2-dimethyl-1H-pyrimido[1,2-a]pyrido[3,4-e]pyrazine 6-oxide], for which the MBC (in the experiment on B. fragilis NCTC 9344; in experiment [1]) was less than 0.8 µg/mL throughout. Also, the MIC was less than 0.8 µg/mL in the experiment with B. fragilis NCTC 9344; less than 0.8 µg/mL in experiment [1]; more than 100 µg/mL in experiment [2]; less than 0.8 µg/mL in experiment [3]; more than 100 µg/mL against Peptostreptococcus; 100 µg/mL (≈ 293 µM) in experiment [4]. Further, the values for the ED (1 log reduction) in the experiment with B. fragilis 23745 (setting [6]) and in the experiment with B. fragilis 23745 (setting [7]) were 9.3 µmol/kg and 3.2 mg/kg, respectively.
With `Cc1ccc(C2=[N+]([O-])c3cccnc3N3CC(C)(C)CN=C23)cc1` [Example 20, 2,3-Dihydro-2,2-dimethyl-5-(4-methylphenyl)-1H-pyrimido[1,2-a]pyrido[3,2-e]pyrazine 6-oxide], the MBC was 1.5 µg/mL (≈ 4.68 µM) in the experiment with B. fragilis NCTC 9344 and less than 0.8 µg/mL in experiment [1]. The MIC is 1.5 µg/mL (≈ 4.68 µM) in the experiment on B. fragilis NCTC 9344; less than 0.8 µg/mL in experiment [1]; 50 µg/mL (≈ 156 µM) in experiment [2]; 1.5 µg/mL (≈ 4.68 µM) in experiment [3]; 25 µg/mL (≈ 78 µM) against Peptococcous magnus; 50 µg/mL (≈ 156 µM) in the experiment with Peptostreptococcus. The same compound showed an MIC in [4] of 25 µg/mL (≈ 78 µM). Besides, the ED (1 log reduction) in the experiment with B. fragilis 23745 (setting [6]) turned out to be 13 µmol/kg; in the experiment with B. fragilis 23745 (setting [7]), 4.2 mg/kg.
Take `COc1ccc(C2=[N+]([O-])c3cccnc3N3CC(C)(C)CN=C23)cc1OC` [Example 22, 2,3-Dihydro-5-(3,4-dimethoxyphenyl)-2,2-dimethyl-1H-pyrimido[1,2-a]pyrido[3,2-e]pyrazine 6-oxide]: the MBC (against B. fragilis NCTC 9344; in [1]) was less than 0.8 µg/mL throughout. In addition, the MIC against B. fragilis NCTC 9344 is less than 0.8 µg/mL; in [1], less than 0.8 µg/mL; in experiment [2] it was more than 100 µg/mL; in experiment [3], less than 0.8 µg/mL; against Peptostreptococcus it was 100 µg/mL (≈ 273 µM); in experiment [4], 50 µg/mL (≈ 136 µM). Further, the ED (1 log reduction) was determined as 7.3 µmol/kg in the experiment with B. fragilis 23745 (setting [6]) and 2.7 mg/kg in the experiment on B. fragilis 23745 (setting [7]).
For `CC1(C)CN=C2C(c3ccccc3)=[N+]([O-])c3cnccc3N2C1` [Example 15, 2,3-Dihydro-2,2-dimethyl-5-phenyl-1H-pyrimido[1,2-a]pyrido[3,4-e]pyrazine 6-oxide], the figures for the minimum bactericidal concentration (MBC) (against B. fragilis NCTC 9344; in experiment [1]) were less than 0.8 µg/mL and 1.5 µg/mL (≈ 4.9 µM), respectively. For the same compound, the MIC in the experiment with B. fragilis NCTC 9344 was less than 0.8 µg/mL; in [1], less than 0.8 µg/mL; in experiment [2] it was 100 µg/mL (≈ 326 µM); in experiment [3], 1.5 µg/mL (≈ 4.9 µM); against Peptococcous magnus, less than 0.8 µg/mL; against Peptostreptococcus, 100 µg/mL (≈ 326 µM). Moreover, the figures for the ED (1 log reduction) in the experiment on B. fragilis 23745 (setting [6]) and with B. fragilis 23745 (setting [7]) were 13.4 µmol/kg and 4.1 mg/kg, respectively.
Turning to `CC1(C)CN=C2C(c3ccc(Cl)cc3)=[N+]([O-])c3cccnc3N2C1` [Example 18, 2,3-Dihydro-5-(4-chlorophenyl)-2,2-dimethyl-1H-pyrimido[1,2-a]pyrido[3,2-e]pyrazine 6-oxide], the values for the MBC (against B. fragilis NCTC 9344; in experiment [1]) were 1.5 µg/mL (≈ 4.4 µM) and less than 0.8 µg/mL, respectively. In addition, the MIC in the experiment with B. fragilis NCTC 9344 was 1.5 µg/mL (≈ 4.4 µM); in experiment [1], less than 0.8 µg/mL; in experiment [2] it was 25 µg/mL (≈ 73.4 µM); in experiment [3], less than 0.8 µg/mL; against Peptococcous magnus, less than 0.8 µg/mL; with Peptostreptococcus it was 25 µg/mL (≈ 73.4 µM). Also, the ED (1 log reduction) in the experiment with B. fragilis 23745 (setting [6]) is 53.4 µmol/kg; with B. fragilis 23745 (setting [7]), 17.4 mg/kg.
For the compound `[O-][N+]1=C(c2ccccc2)C2=NCC3(CCCCC3)CN2c2ncccc21` [Example 29, Spiro[cyclohexane-1,2'-[2,3]-dihydro-[5]-phenyl-[1H]pyrimido[1,2-a]pyrido[3,2-e]pyrazine [6]-oxide]], the MBC (with B. fragilis NCTC 9344; in experiment [1]) was less than 0.8 µg/mL throughout. For the same compound, the MIC against B. fragilis NCTC 9344 is less than 0.8 µg/mL; in experiment [1], less than 0.8 µg/mL; against P. anaerobius, less than 0.8 µg/mL; in [3], 1.5 µg/mL (≈ 4.33 µM); against Peptococcous magnus it was less than 0.8 µg/mL; in [5] it was 100 µg/mL (≈ 289 µM). The MIC in experiment [4] amounted to 50 µg/mL (≈ 144 µM). Further, the ED (1 log reduction) with B. fragilis 23745 (setting [6]) was found to be 10.1 µmol/kg; in the experiment on B. fragilis 23745 (setting [7]), 3.5 mg/kg.
As for `CC1(C)CN=C2C(c3ccccc3)=[N+]([O-])c3cccnc3N2C1` [Example 16, 2,3-Dihydro-2,2-dimethyl-5-phenyl-1H-pyrimido[1,2-a]pyrido[3,2-e]pyrazine 6-oxide], the MBC (against B. fragilis NCTC 9344; in [1]) was 1.5 µg/mL (≈ 4.9 µM) in each case. Besides, the MIC in the experiment with B. fragilis NCTC 9344 is 1.5 µg/mL (≈ 4.9 µM); in experiment [1], less than 0.8 µg/mL; in experiment [2], 25 µg/mL (≈ 81.6 µM); in experiment [3] it was less than 0.8 µg/mL; with Peptococcous magnus, less than 0.8 µg/mL; in the experiment with Peptostreptococcus, 25 µg/mL (≈ 81.6 µM). For the same compound, the results for the ED (1 log reduction) with B. fragilis 23745 (setting [6]) and in the experiment on B. fragilis 23745 (setting [7]) were 2.6 µmol/kg and 0.8 mg/kg, respectively.

(Values after patent publication US4761414A, “Substituted 1H-pyrimido[1,2-a-]-pyrido[3,4-e]pyrazine 6 oxides” (G. D. Searle & Co., priority 1986, dated 1988).)
